Details: 50 ppm of sulfuric acid added to pressure-sterilized physiological salt solution (salt concentration 0.9 wt %)

In the case of `O=S(=O)(O)O` [sulfuric acid], the “pH of the liquid” value is reported as 3.2.

From patent US7090780B2, “Bactericide for use in water treatment, method for water treatment and apparatus for water treatment” (Toray Industries, Inc., priority 2001, dated 2006)
